How the values were obtained:
[1] = Inhaled anticoagulant in patient undergoing heart valve replacement (Example 6); assay type: in vivo, human
Protocol: Inhaled anticoagulant (e.g. Argatroban) will be administered to a patient undergoing heart valve replacement to target the heart to reach an anti-coagulated state. In this example, a dose of 0.1 to 150 mg/kg can be sufficient to achieve an anti-coagulated state in 30 minutes.

intrinsic system = assay: Activated Partial Thromboplastin Time (aPTT or PTT) in dog blood after IV or IT anticoagulant; assay type: in vivo; details: for PTT CS: Coronary Sinus; for PTT LA: Left Atrium
Protocol: (§1) To assess the efficacy of anticoagulants delivered via intratracheal (IT) inhalation, four different anticoagulants were tested in a dog study.
(§2) PK as well as biomarkers of blood in the Left Atrium (LA) and Coronary Sinus (CS) were monitored. These locations were chosen as these are the sites whereby clot formation occurs that leads to Myocardial Infarction or results in stroke.
(§3) These drugs and doses were selected to represent a wide spectrum of anticoagulant classes. One anticoagulant was tested in one dog on each arm of this study.
(§4) Factor Xa inhibition; Prothrombin Time (PT): measures the integrity of the extrinsic system as well as factors common to both systems; and Activated Partial Thromboplastin Time (aPTT or PTT): measures the integrity of the intrinsic system and the common components and factor-Xa inhibition.
(§5) Measurements were performed in the blood collected from Left Atrium (LA) and in the Coronary sinus (CS)—the targets for stroke prevention and Myocardial Infarction (MI), respectively.

extrinsic system = assay: Prothrombin Time (PT) in dog blood after IV or IT anticoagulant; assay type: in vivo; details: for PT CS / PTCS: Coronary Sinus; for PT LA: Left Atrium
Protocol: as §1, §2, §3, §4, §5

intrinsic pathway = assay: Activated clotting time (ACT) in dog blood after IV or IT anticoagulant; assay type: in vivo; details: for ACT LA: Left Atrium
Protocol: To assess the efficacy of anticoagulants delivered via intratracheal (IT) inhalation, four different anticoagulants were tested in a dog study. PK as well as biomarkers of blood in the Left Atrium (LA) and Coronary Sinus (CS) were monitored. These locations were chosen as these are the sites whereby clot formation occurs that leads to Myocardial Infarction or results in stroke. These drugs and doses were selected to represent a wide spectrum of anticoagulant classes. One anticoagulant was tested in one dog on each arm of this study. Activated clotting time (ACT), measures the time in seconds needed for whole blood to clot upon exposure to an activator of an intrinsic pathway by the addition of such as factor XII activators. Measurements were performed in the blood collected from Left Atrium (LA) and in the Coronary sinus (CS)—the targets for stroke prevention and Myocardial Infarction (MI), respectively.

[2] = Inhaled anticoagulant in Myocardial Infarction patient (Example 4); assay type: in vivo, human
Text: Inhaled anticoagulant (e.g. Argatroban) will be administered (e.g., self-administered) to a patient suffering a Myocardial Infarction (MI) early to ensure that the patient is in an anti-coagulated state by the time the patient arrives at the hospital or point of care. This will facilitate further interventions, for which an anti-coagulated state is important.

[3] = Inhaled anticoagulant in heart transplant patient (Example 8); assay type: in vivo, human; details: patient undergoing heart transplant
Protocol: Inhaled anticoagulant (e.g. Argatroban) will be administered to a patient undergoing heart transplant to target the heart to reach an anti-coagulated state. In this example, a dose of 0.1 to 150 mg/kg can be sufficient to achieve an anti-coagulated state in 30 minutes.

[4] = cited from earlier work
[5] = in vivo; cited from earlier work
[6] = IV Argatroban 3 mg, 0 min (baseline)
[7] = T Argatroban 5 mg, 0 min (baseline)

## CC1CNc2c(cccc2S(=O)(=O)N[C@@H](CCCNC(=N)N)C(=O)N2CC[C@@H](C)C[C@@H]2C(=O)O)C1 (some centres unmarked) [Argatroban]
[1]; inhaled
  return to a normal coagulation state after initiating the administration: 3 h
[1]; inhaled 0.1 to 150 mg/kg
  time to achieve an anti-coagulated state: 30 min
Intrinsic system; IT (inhaled)
  effect on aPTT: very marginal spikes
Intrinsic system; IV
  effect on aPTT: prolonged
Intrinsic system; [6]
  PTT CS: 20.9 s
  PTT LA: 48.2 s
Intrinsic system; IV Argatroban 3 mg, 3 min
  PTT CS: 20 s
  PTT LA: 29.5 s
Intrinsic system; IV Argatroban 3 mg, 15 min
  PTT CS: 33.8 s
  PTT LA: 25.1 s
Intrinsic system; IV Argatroban 3 mg, 60 min
  PTT CS: 24.9 s
  PTT LA: 9.8 s
Intrinsic system; IV Argatroban 3 mg, 1 min
  PTT LA: 41.5 s
Intrinsic system; IV Argatroban 3 mg, 5 min
  PTT LA: 23.4 s
Intrinsic system; IV Argatroban 3 mg, 10 min
  PTT LA: 20.9 s
Intrinsic system; IV Argatroban 3 mg, 30 min
  PTT LA: 12.2 s
Intrinsic system; IV Argatroban 3 mg, 120 min
  PTT LA: 49.3 s
Intrinsic system; [7]
  PTT CS: 16.1 s
  PTT LA: 13.3 s
Intrinsic system; T Argatroban 5 mg, 3 min
  PTT CS: 18.4 s
  PTT LA: 17.7 s
Intrinsic system; T Argatroban 5 mg, 15 min
  PTT CS: 9.5 s
  PTT LA: 17.8 s
Intrinsic system; T Argatroban 5 mg, 60 min
  PTT CS: 40.3 s
  PTT LA: 11.1 s
Intrinsic system; T Argatroban 5 mg, 1 min
  PTT LA: 12.5 s
Intrinsic system; T Argatroban 5 mg, 5 min
  PTT LA: 17.2 s
Intrinsic system; T Argatroban 5 mg, 10 min
  PTT LA: 20.1 s
Intrinsic system; T Argatroban 5 mg, 30 min
  PTT LA: 13.2 s
Intrinsic system; T Argatroban 5 mg, 120 min
  PTT LA: 10.4 s
Extrinsic system; IT (inhaled)
  effect on PT: very marginal spikes
Extrinsic system; IV
  effect on PT: prolonged
Extrinsic system; [6]
  PT CS: 6.5 s
  PT LA: 9.1 s
Extrinsic system; IV Argatroban 3 mg, 3 min
  PT CS: 33.7 s
  PT LA: 36.3 s
Extrinsic system; IV Argatroban 3 mg, 15 min
  PT CS: 20.2 s
  PT LA: 18 s
Extrinsic system; IV Argatroban 3 mg, 60 min
  PT CS: 8.6 s
  PT LA: 7.9 s
Extrinsic system; IV Argatroban 3 mg, 1 min
  PT LA: 44.3 s
Extrinsic system; IV Argatroban 3 mg, 5 min
  PT LA: 30.1 s
Extrinsic system; IV Argatroban 3 mg, 10 min
  PT LA: 22 s
Extrinsic system; IV Argatroban 3 mg, 30 min
  PT LA: 11.5 s
Extrinsic system; IV Argatroban 3 mg, 120 min
  PT LA: 6.7 s
Extrinsic system; [7]
  PTCS: 6.5 s
  PT LA: 6.3 s
Extrinsic system; T Argatroban 5 mg, 3 min
  PTCS: 6.8 s
  PT LA: 7 s
Extrinsic system; T Argatroban 5 mg, 15 min
  PTCS: 8.9 s
  PT LA: 10.4 s
Extrinsic system; T Argatroban 5 mg, 60 min
  PTCS: 8.6 s
  PT LA: 8.1 s
Extrinsic system; T Argatroban 5 mg, 1 min
  PT LA: 6.7 s
Extrinsic system; T Argatroban 5 mg, 5 min
  PT LA: 7.2 s
Extrinsic system; T Argatroban 5 mg, 10 min
  PT LA: 8.6 s
Extrinsic system; T Argatroban 5 mg, 30 min
  PT LA: 12 s
Extrinsic system; T Argatroban 5 mg, 120 min
  PT LA: 7.3 s
Intrinsic pathway
  time in which ACT returns to base line: 2 h
Intrinsic pathway; IT
  increase of ACT above baseline: ≤ 3.2 fold
  time in which IT prolonged the ACT: 15 to 30 min
Intrinsic pathway; IT (inhaled)
  effect on ACT: increased and prolonged ACT
Intrinsic pathway; IV
  effect on ACT: prolonged
Intrinsic pathway; [6]
  ACT LA: 101 s
Intrinsic pathway; IV Argatroban 3 mg, 1 min
  ACT LA: 535 s
Intrinsic pathway; IV Argatroban 3 mg, 3 min
  ACT LA: 1000 s
Intrinsic pathway; IV Argatroban 3 mg, 5 min
  ACT LA: 489 s
Intrinsic pathway; IV Argatroban 3 mg, 10 min
  ACT LA: 326 s
Intrinsic pathway; IV Argatroban 3 mg, 15 min
  ACT LA: 264 s
Intrinsic pathway; IV Argatroban 3 mg, 30 min
  ACT LA: 185 s
Intrinsic pathway; IV Argatroban 3 mg, 60 min
  ACT LA: 140 s
Intrinsic pathway; IV Argatroban 3 mg, 120 min
  ACT LA: 107 s
Intrinsic pathway; [7]
  ACT LA: 84 s
Intrinsic pathway; T Argatroban 5 mg, 1 min
  ACT LA: 89 s
Intrinsic pathway; T Argatroban 5 mg, 3 min
  ACT LA: 73 s
Intrinsic pathway; T Argatroban 5 mg, 5 min
  ACT LA: 106 s
Intrinsic pathway; T Argatroban 5 mg, 10 min
  ACT LA: 135 s
Intrinsic pathway; T Argatroban 5 mg, 15 min
  ACT LA: 180 s
Intrinsic pathway; T Argatroban 5 mg, 30 min
  ACT LA: 259 s
Intrinsic pathway; T Argatroban 5 mg, 60 min
  ACT LA: 180 s
Intrinsic pathway; T Argatroban 5 mg, 120 min
  ACT LA: 129 s
[2]; patient suffering Myocardial Infarction, inhaled 0.1 to 150 mg/kg
  time to achieve an anti-coagulated state: 30 min
[2]; patient suspected of Myocardial Infarction, inhaled
  return to a normal coagulation state after initiating the administration: 3 h
[3]; inhaled
  return to a normal coagulation state after initiating the administration: 3 h
[3]; inhaled 0.1 to 150 mg/kg
  time to achieve an anti-coagulated state: 30 min

## CCCCS(=O)(=O)N[C@@H](Cc1ccc(OCCCCC2CCNCC2)cc1)C(=O)O [Tirofiban]
[4]
  Log P: 1.4
  aqueous solubility: low

## CO[C@H]1O[C@H](COS(=O)(=O)O)[C@@H](O[C@@H]2O[C@@H](C(=O)O)[C@@H](O[C@H]3O[C@H](COS(=O)(=O)O)[C@@H](O[C@@H]4O[C@H](C(=O)O)[C@@H](O[C@H]5O[C@H](COS(=O)(=O)O)[C@@H](OC)[C@H](OC)[C@H]5OC)[C@H](OC)[C@H]4OC)[C@H](OS(=O)(=O)O)[C@H]3OS(=O)(=O)O)[C@H](OC)[C@H]2OC)[C@H](OS(=O)(=O)O)[C@H]1OS(=O)(=O)O [idraparinux]
[5]
  elimination half-life: approximately 80 hours
  elimination half-life relative to fondaparinux: five to six times longer

Source: patent publication US11547663B2, “Unit aerosol doses for anticoagulation” (InCarda Therapeutics, Inc., priority 2015, dated 2023)
